Target: Acetylcholinesterase (Torpedo californica, UniProt P04058)
Assay: Inhibition of Torpedo californica AChE (type VI-S) using acetylthiocholine iodide as substrate assessed as 5-thio-2-nitrobenzoate anion formation preincubated for 15 mins followed by substrate addition
Design: species or system Tetronarce californica

Sequence of Acetylcholinesterase (P04058 whole entry): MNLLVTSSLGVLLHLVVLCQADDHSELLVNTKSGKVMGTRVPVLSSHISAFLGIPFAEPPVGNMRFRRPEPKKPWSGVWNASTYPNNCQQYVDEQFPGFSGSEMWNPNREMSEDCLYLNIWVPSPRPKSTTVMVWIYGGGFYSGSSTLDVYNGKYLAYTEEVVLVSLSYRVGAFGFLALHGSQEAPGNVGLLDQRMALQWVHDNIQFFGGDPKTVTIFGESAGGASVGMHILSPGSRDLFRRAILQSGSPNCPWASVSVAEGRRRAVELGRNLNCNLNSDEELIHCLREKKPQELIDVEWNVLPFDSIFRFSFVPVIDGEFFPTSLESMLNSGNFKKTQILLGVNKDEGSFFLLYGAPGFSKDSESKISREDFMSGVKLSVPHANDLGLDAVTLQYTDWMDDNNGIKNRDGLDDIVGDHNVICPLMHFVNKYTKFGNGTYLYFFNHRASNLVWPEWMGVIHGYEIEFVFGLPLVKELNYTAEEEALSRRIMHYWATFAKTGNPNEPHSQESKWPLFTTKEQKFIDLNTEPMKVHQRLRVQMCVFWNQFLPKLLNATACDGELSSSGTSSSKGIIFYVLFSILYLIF

| SMILES | IC50 [nM] |
| --- | --- |
| COc1cccc2cc(C(=O)/C=C/c3ccc[n+](Cc4ccc(Br)cc4)c3)oc12 | 10700 |
| O=C(/C=C/c1cc[n+](Cc2cccc(Cl)c2Cl)cc1)c1cc2ccccc2o1 | 3120 |
| O=C(/C=C/c1ccc[n+](Cc2ccc(Br)cc2)c1)c1cc2cc(Br)ccc2o1 | 31000 |
| O=C(/C=C/c1cc[n+](Cc2ccccc2)cc1)c1cc2cc(Br)ccc2o1 | 5960 |
| O=C(/C=C/c1ccc[n+](Cc2ccccc2)c1)c1cc2cc(Br)ccc2o1 | 5410 |
| O=C(/C=C/c1ccc[n+](Cc2ccc([N+](=O)[O-])cc2)c1)c1cc2ccccc2o1 | 29200 |
| O=C(/C=C/c1ccc[n+](Cc2ccccc2)c1)c1cc2ccccc2o1 | 58 |
| COc1cccc2cc(C(=O)/C=C/c3ccc[n+](Cc4cccc(Cl)c4Cl)c3)oc12 | 985 |
| O=C(/C=C/c1ccc[n+](Cc2ccccc2Br)c1)c1cc2cc(Br)ccc2o1 | 2150 |
| COc1cccc2cc(C(=O)/C=C/c3ccc[n+](Cc4ccccc4)c3)oc12 | 3890 |
| O=C(/C=C/c1ccc[n+](Cc2cccc(Cl)c2Cl)c1)c1cc2cc(Br)ccc2o1 | 2850 |
| O=C(/C=C/c1cc[n+](Cc2ccccc2)cc1)c1cc2ccccc2o1 | 64 |
| O=C(/C=C/c1cc[n+](Cc2ccccc2Br)cc1)c1cc2ccccc2o1 | 41 |
| O=C(/C=C/c1ccc[n+](Cc2ccc(Cl)c(Cl)c2)c1)c1cc2cc(Br)ccc2o1 | 786 |
| O=C(/C=C/c1ccc[n+](Cc2ccccc2Br)c1)c1cc2ccccc2o1 | 35 |
| COc1cccc2cc(C(=O)/C=C/c3ccc[n+](Cc4ccccc4Br)c3)oc12 | 27 |
| COc1cccc2cc(C(=O)/C=C/c3ccc[n+](Cc4ccc(Cl)cc4)c3)oc12 | 11200 |
| O=C(/C=C/c1ccc[n+](Cc2ccc(Br)cc2)c1)c1cc2ccccc2o1 | 357 |
